In ChEMBL document CHEMBL5442219:

Key:
Conditions in all cases: Compound concentration 10 µM
[1] = molecular target: Histamine H4 receptor (Homo sapiens) (UniProt Q9H3N8)
[2] = molecular target: Histamine H1 receptor (Homo sapiens) (UniProt P35367)
[3] = molecular target: 5-hydroxytryptamine receptor 1D (Homo sapiens) (UniProt P28221)
[4] = molecular target: Beta-3 adrenergic receptor (Homo sapiens) (UniProt P13945)
[5] = molecular target: Histamine H3 receptor (Homo sapiens) (UniProt Q9Y5N1)
[6] = molecular target: Histamine H2 receptor (Homo sapiens) (UniProt P25021)
Sequence of Histamine H2 receptor (Homo sapiens) (P25021 whole entry): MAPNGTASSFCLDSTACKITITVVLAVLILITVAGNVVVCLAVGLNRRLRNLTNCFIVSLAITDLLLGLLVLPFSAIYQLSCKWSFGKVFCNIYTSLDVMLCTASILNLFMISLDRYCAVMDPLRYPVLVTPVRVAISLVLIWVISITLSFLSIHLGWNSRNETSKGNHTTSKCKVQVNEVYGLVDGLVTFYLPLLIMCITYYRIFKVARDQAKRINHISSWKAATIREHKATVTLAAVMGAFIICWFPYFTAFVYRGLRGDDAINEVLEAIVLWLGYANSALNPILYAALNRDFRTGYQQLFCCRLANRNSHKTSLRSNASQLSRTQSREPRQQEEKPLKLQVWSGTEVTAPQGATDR

[7] = molecular target: T1, Alpha-1D adrenergic receptor (Homo sapiens) (UniProt P25100)
T1 sequence (whole entry): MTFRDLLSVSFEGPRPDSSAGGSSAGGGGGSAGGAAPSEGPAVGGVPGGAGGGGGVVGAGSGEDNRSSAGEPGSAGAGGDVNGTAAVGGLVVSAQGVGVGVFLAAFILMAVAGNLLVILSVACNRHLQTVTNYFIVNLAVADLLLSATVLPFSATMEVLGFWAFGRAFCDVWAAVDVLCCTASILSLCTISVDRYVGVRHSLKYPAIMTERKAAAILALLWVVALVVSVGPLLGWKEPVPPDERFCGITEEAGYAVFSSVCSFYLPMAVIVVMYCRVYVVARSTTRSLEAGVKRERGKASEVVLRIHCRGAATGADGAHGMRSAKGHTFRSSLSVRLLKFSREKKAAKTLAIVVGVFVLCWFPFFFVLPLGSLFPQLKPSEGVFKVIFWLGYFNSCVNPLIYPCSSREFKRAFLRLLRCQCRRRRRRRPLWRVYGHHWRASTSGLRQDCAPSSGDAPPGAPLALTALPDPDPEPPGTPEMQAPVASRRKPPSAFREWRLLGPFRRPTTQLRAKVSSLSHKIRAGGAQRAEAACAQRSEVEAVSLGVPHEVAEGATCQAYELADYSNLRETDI

[8] = molecular target: T2, Muscarinic acetylcholine receptor M1 (Homo sapiens) (UniProt P11229)
T2 sequence (whole entry): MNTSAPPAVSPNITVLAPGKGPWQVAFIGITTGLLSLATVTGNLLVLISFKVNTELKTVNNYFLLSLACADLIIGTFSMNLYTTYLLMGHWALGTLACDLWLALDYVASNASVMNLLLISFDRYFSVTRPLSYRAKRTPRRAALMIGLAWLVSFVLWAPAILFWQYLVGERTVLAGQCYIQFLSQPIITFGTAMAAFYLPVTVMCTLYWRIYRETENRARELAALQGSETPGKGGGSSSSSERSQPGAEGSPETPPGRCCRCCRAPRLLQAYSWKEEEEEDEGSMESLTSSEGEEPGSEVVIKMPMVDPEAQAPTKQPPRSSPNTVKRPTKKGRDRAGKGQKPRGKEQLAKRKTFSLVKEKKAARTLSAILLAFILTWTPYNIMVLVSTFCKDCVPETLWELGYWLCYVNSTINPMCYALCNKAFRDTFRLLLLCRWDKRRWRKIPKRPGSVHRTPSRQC

[9] = molecular target: D(1B) dopamine receptor (Homo sapiens) (UniProt P21918)
Sequence of D(1B) dopamine receptor (Homo sapiens) (P21918 whole entry): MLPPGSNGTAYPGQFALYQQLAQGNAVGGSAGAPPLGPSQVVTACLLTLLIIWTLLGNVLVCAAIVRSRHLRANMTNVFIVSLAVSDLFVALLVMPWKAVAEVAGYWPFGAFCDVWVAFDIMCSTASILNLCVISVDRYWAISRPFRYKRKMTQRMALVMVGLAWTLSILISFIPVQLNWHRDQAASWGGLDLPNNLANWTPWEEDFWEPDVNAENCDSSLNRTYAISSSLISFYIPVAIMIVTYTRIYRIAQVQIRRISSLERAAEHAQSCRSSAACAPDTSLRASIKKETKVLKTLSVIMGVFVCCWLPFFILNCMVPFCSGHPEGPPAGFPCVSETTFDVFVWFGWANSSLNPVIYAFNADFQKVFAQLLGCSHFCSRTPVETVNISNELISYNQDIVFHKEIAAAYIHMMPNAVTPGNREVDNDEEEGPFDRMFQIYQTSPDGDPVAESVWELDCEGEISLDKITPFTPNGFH

[10] = molecular target: 5-hydroxytryptamine receptor 2B (Homo sapiens) (UniProt P41595)
Sequence of 5-hydroxytryptamine receptor 2B (Homo sapiens) (P41595 whole entry): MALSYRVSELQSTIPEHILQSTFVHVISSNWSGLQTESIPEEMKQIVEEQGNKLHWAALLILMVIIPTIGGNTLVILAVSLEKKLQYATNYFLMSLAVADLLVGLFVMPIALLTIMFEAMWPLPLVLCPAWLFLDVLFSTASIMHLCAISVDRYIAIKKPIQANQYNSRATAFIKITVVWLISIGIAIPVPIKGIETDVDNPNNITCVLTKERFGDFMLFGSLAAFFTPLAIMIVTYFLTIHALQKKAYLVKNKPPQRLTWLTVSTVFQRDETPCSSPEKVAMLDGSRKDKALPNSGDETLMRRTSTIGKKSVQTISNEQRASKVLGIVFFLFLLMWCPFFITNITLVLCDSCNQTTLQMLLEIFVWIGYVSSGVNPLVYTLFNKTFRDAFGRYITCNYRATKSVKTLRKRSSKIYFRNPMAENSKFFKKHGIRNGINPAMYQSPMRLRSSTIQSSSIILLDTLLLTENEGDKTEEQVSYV

[11] = molecular target: Mu-type opioid receptor (Homo sapiens) (UniProt P35372)
Sequence of Mu-type opioid receptor (Homo sapiens) (P35372 whole entry): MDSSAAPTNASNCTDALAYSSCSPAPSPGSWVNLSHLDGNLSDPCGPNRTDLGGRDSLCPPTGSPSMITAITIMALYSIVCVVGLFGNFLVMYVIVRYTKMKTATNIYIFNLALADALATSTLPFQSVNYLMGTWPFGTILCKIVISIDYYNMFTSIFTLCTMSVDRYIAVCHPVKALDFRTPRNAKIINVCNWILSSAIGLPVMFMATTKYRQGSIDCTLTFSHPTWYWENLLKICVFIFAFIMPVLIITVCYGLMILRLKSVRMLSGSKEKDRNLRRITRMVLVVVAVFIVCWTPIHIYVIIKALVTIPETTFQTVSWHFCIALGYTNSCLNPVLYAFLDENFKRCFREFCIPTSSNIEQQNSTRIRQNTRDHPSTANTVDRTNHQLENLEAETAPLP

[12] = molecular target: T3, Alpha-2C adrenergic receptor (Homo sapiens) (UniProt P18825)
T3 sequence (whole entry): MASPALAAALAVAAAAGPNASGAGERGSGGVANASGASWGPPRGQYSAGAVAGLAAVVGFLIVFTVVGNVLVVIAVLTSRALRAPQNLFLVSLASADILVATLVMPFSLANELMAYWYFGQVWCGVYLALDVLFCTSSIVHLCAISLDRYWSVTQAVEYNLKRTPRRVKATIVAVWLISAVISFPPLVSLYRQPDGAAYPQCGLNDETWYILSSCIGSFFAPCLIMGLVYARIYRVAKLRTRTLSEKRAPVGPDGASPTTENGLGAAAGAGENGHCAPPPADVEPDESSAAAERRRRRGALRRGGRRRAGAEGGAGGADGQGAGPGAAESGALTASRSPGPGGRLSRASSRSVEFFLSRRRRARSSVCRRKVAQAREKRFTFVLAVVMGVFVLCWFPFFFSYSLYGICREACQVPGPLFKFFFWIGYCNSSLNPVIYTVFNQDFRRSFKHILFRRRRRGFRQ

[13] = molecular target: T4, Alpha-2A adrenergic receptor (Homo sapiens) (UniProt P08913)
T4 sequence (whole entry): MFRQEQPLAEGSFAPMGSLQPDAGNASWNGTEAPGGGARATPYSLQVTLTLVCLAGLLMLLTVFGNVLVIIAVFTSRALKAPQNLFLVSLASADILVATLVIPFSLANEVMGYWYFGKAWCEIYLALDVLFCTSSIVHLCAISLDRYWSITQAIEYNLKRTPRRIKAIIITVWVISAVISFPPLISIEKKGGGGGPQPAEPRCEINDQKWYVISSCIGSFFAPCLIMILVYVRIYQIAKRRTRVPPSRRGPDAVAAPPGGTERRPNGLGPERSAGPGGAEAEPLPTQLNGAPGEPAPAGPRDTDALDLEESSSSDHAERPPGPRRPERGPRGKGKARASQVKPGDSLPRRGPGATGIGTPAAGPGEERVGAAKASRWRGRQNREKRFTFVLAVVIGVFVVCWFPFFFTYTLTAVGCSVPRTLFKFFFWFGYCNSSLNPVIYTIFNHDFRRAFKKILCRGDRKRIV

Sequence of 5-hydroxytryptamine receptor 1D (Homo sapiens) (P28221 whole entry): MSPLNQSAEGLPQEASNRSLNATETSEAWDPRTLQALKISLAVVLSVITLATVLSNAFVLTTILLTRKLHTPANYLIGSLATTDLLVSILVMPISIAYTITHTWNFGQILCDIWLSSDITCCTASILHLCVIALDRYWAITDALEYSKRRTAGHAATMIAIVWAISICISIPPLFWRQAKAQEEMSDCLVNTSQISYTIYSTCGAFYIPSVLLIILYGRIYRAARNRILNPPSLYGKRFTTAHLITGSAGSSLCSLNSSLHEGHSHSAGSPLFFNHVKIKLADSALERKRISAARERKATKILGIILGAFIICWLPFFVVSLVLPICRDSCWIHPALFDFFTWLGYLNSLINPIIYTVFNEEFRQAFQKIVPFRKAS
Sequence of Histamine H4 receptor (Homo sapiens) (Q9H3N8 whole entry): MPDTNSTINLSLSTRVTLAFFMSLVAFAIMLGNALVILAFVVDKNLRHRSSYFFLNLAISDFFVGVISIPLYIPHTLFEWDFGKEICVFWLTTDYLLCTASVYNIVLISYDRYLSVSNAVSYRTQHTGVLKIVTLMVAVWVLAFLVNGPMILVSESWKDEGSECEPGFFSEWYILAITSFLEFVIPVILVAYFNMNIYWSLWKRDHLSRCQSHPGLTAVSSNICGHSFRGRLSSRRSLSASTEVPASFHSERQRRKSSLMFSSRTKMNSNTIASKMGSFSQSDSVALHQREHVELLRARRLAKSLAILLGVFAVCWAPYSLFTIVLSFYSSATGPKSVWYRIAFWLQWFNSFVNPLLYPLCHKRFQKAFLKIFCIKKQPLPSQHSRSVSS
Sequence of Histamine H3 receptor (Homo sapiens) (Q9Y5N1 whole entry): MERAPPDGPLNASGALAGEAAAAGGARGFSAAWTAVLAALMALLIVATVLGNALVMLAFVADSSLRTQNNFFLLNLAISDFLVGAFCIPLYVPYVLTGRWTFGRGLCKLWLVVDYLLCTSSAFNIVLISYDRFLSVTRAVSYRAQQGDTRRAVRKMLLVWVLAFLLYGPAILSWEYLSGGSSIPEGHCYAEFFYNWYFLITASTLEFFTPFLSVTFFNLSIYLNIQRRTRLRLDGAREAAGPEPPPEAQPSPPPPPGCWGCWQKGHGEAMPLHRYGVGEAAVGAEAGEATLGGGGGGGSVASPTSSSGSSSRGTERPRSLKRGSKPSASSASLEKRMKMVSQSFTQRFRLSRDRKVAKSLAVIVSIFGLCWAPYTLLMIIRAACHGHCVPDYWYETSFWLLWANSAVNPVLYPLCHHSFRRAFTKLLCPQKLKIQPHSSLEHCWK
Sequence of Beta-3 adrenergic receptor (Homo sapiens) (P13945 whole entry, looked up): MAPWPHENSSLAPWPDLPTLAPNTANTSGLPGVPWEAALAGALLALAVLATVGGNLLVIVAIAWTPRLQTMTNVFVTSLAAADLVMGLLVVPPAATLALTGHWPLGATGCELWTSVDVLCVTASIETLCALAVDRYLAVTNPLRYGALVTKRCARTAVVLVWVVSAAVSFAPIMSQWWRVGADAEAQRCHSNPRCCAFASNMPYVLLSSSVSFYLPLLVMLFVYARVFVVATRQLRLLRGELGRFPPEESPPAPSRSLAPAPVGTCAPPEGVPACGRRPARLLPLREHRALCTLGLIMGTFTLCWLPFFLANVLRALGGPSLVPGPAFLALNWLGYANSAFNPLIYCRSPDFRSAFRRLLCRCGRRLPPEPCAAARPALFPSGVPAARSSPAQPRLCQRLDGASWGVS
Sequence of Histamine H1 receptor (Homo sapiens) (P35367 whole entry): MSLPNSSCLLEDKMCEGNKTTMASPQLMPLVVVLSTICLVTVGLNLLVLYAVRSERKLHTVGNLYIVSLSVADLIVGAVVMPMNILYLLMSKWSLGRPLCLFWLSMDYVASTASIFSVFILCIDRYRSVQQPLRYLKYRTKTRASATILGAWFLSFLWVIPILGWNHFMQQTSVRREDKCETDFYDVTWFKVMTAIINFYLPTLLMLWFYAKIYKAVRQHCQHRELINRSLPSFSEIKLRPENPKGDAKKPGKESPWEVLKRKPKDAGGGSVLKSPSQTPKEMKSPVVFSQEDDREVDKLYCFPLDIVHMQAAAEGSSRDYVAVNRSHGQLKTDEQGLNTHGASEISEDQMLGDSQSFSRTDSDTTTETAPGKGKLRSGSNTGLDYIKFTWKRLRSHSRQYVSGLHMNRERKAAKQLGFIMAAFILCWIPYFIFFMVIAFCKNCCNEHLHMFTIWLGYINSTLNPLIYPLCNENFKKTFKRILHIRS

Structure (SMILES) | inhibition [1] [%] | inhibition [2] [%] | inhibition [3] [%] | inhibition [4] [%] | inhibition [5] [%] | inhibition [6] [%] | inhibition [7] [%] | inhibition [8] [%] | inhibition [9] [%] | inhibition [10] [%] | inhibition [11] [%] | inhibition [12] [%] | inhibition [13] [%]
Cc1c(OCc2cccc(-c3ccc(C(=O)O)cc3)c2)cc2c(c1C)C(=O)C(C1CCCC1)C2 (stereo not given) | 14.3 | -3.97 | 0.61 | 76.5 | 31.1 | 25.4 | 60 | -9.01 | – | – | – | – | –
COc1ccc(Br)cc1S(=O)(=O)NC(=O)/C=C/c1ccccc1Cc1ccc2ccccc2c1 | -5.64 | 9.07 | 12 | 33.2 | 5.89 | 16 | 16.2 | 4.85 | -9.64 | -4.73 | 22.1 | 18.6 | –
CCCCCCCCCCCCCCCCOC[C@H](COP(=O)([O-])OCC[N+](C)(C)C)OC(C)=O | – | – | 68.2 | 28.1 | -0.67 | 4.45 | 50.7 | 49.9 | 13.6 | – | 35.1 | 3.24 | –
CC(C)(N)C(=O)N[C@H](COCc1ccccc1)C(=O)N1CCC2(CC1)CN(S(C)(=O)=O)c1ccccc12 | 4.09 | 24.6 | 30.2 | 15.2 | -0.42 | 5.6 | 9.82 | – | -1.48 | 3.09 | 12.8 | 3.03 | 10.4
CCOC(=O)c1c(C)[nH]c2ccc3c(c12)CN1CCc2cc(OC)ccc2C1O3 (stereo not given) | 29.1 | 24.9 | 14.9 | 6.3 | -2.82 | 57.5 | 36.5 | 11.9 | – | 67.6 | 56.5 | 95 | 86.7
CCCSc1nc(N[C@@H]2C[C@H]2c2ccc(F)c(F)c2)c2nnn([C@@H]3C[C@H](OCCO)[C@@H](O)[C@H]3O)c2n1 | -2.55 | 16.1 | 48.6 | 49.7 | – | 3.94 | 11.3 | 18.3 | 2.95 | 33.3 | -2.99 | 15.4 | –
CCCCCNC(=O)NS(=O)(=O)c1cc([N+](=O)[O-])ccc1NC1CCCCC1 | 16.9 | 12.8 | 12.4 | 39.7 | 11.4 | -2.95 | 6.55 | -6.06 | 4.44 | -9.68 | 26.7 | -0.86 | –
C[C@H](Cc1cc2c(c(C(N)=O)c1)N(CCCO)CC2)NCCOc1ccccc1OCC(F)(F)F | -6.83 | 62.9 | 90.2 | 11 | – | 34.6 | 86.5 | 20.8 | – | 71.7 | 38.8 | 82.5 | 84.6
COc1ccc(S(=O)(=O)N2c3ccc(Cl)cc3[C@](O)(c3ccccc3Cl)[C@@H]2C(=O)N2CCC[C@H]2C(N)=O)cc1OC | 21.7 | 5.97 | 6.02 | 31.7 | 7.89 | 15.4 | 10.8 | – | – | 0.08 | 38.8 | -3.82 | 12.7
CCCCC#Cc1nc(NC)c2ncn([C@@H]3O[C@H](CO)[C@@H](O)[C@H]3O)c2n1 | -7.18 | 20.6 | 8.46 | -8.99 | 7.95 | 16 | -1.99 | -6.77 | – | -4.41 | 2.4 | -4.88 | –
Cc1cc(NC(=O)Nc2ccc(N(C)C)cc2)c2cc(F)cc(F)c2n1 | 5.25 | 6.41 | -2.42 | 18.1 | 28.6 | 16.8 | 6.71 | -7.92 | – | 73.3 | 1.4 | 9.7 | –
O=c1ccn([C@@H]2O[C@H](COP(=O)(O)OP(=O)(O)O)[C@@H](O)[C@H]2O)c(=O)[nH]1 | 7.98 | 34.8 | -5.04 | 15.3 | 7.28 | -7.58 | – | – | -4.32 | 0.47 | 44 | -6.08 | –
CCCCN(CC)c1nc(C)nc2c1c(C)cn2-c1c(C)cc(C)cc1C | 2.86 | 12.4 | -0.49 | 41.7 | -0.29 | 20.9 | 16.5 | – | -2.04 | 16.9 | 20.1 | -1.9 | 4.06
CCCCN(CCCC)C(=O)CN1C[C@@H](c2ccc3c(c2)OCO3)[C@H](C(=O)O)[C@H]1c1ccc(OC)cc1 | 4.49 | 3.82 | -9.55 | -9.03 | -6.84 | 31 | – | -7.47 | – | -9.25 | 0.92 | -5.48 | 0.09
Nc1nc2c(c(N3CCNCC3)n1)CCC1=C2[C@@H]2CCCC[C@@H]2O1 | 89.8 | 55 | 10 | 14.4 | 34.4 | 43.4 | – | 8.9 | -1.02 | 81.8 | 26.7 | 30.6 | 4.22
CN1C2CCC1CC(OC(c1ccc(F)cc1)c1ccc(F)cc1)C2 (stereo not given) | 67.8 | – | 74 | 36 | -0.82 | 86.9 | 91.5 | 94.5 | 66.6 | 102 | 59.1 | – | –
